Tests used:
[1] = tested on: Human peripheral blood eosinophils; test: IL-8 production by eosinophils (ELISA); type: cell-based; details: 0.01 μg/mL, 24 hours
Experimental: Human peripheral blood eosinophils can produce and release proinflammtory cytokines including IL-8. Eosinophils were incubated with 50 μg/mL or 100 μg/mL of Alternaria, or with 0.01 μg/mL IL-5, and the amount of IL-8 was measured. Purified eosinophils (1 mL at 1×10^6 cells/mL) were cultured in RPMI 1640 medium supplemented with 10% BCS in the presence of Alternaria or IL-5 using 48-well tissue culture plates (Costar, Cambridge, Mass.). After incubating the eosinophils with Alternaria or IL-5 for 24 hours at 37° C. in an atmosphere of 5% CO2, cell free supernatants were collected and frozen at −20° C. The concentrations of IL-8 in the supernatants were measured using an ELISA kit (Quantikine IL-8 Immunoassay Kit, R&D Systems, Minneapolis, Minn.). The threshold sensitivity of the kit was 4 pg/mL.

eosinophils = test: Intracellular calcium [Ca^2+]i in eosinophils (indo-1, flow cytometer); type: cell-based, human; details: 100 μg/mL extract or 10 ng/mL IL-5, 37° C.
Experimental: Real time changes in cytosolic free Ca^2+ (intracellular Ca^2+ concentration ([Ca^2+]i)) were measured in a flow cytometer using the fluorescent calcium indicator indo-1 (Rabinovitch et al., 1986, J. Immunol., 137:952; Grynkiewicz et al., 1985, J. Biol Chem., 260:3440). Indicator was introduced into cells by incubating 1 mL of eosinophils at a concentration of 1 to 2×10^6 cells/mL with 3 μM indo-1/AM (Molecular Probes, Eugene, Oreg.) in phenol red-free RPMI 1640 medium supplemented with 10% alpha calf serum and 10 mM HEPES for 30 minutes at 37° C. After washing, cells were suspended in RPMI with 0.1% HSA and 10 mM HEPES at 1×10^6 cells/mL. To measure [Ca^2+]i, cells were stimulated with 100 μg/mL Alternaria culture extract or 10 ng/mL IL-5, and fluorescence was analyzed by a FACS analyzer equipped with an ion-argon laser (Becton Dickinson). [Ca^2+]i was monitored on the basis of the ratio of the fluorescence of the calcium-bound indo-1 emission (401 nm) and the free indo-1 emission (475 nm). In addition, the [Ca^2+] in the medium can be manipulated to determine the effect on [Ca^2+]i.

Human eosinophils = test: Eosinophil degranulation measured by EDN release (RIA); type: cell-based
Experimental: The ability to induce eosinophilic degranulation was measured by EDN release. Human eosinophils were isolated from normal volunteers and volunteers reporting past allergies, hay fever, and/or asthma by Percoll density gradient centrifugation and magnetic cell sorting using MACS anti-CD16 microbeads as described by Hansel et al. (1991, J. Immunol. Methods, 145:105). Briefly, after peripheral blood was overlaid on an isotonic Percoll solution (1.084 g/ml; Sigma), the blood was centrifuged at 1000×g for 30 minutes at 4° C. Mononuclear cells at the interface were removed, and erythrocytes in the sediment were lysed by two cycles of hypotonic water lysis. Isolated granulocytes were washed twice with PIPES buffer (25 mM PIPES, 50 mM NaCl, 5 mM KCl, 25 mM NaOH, 5.4 mM glucose, pH 7.4) containing 1% bovine calf serum (Hyclone Laboratories; Logan, Utah). Cells were then incubated with an equal volume of anti-CD16-conjugated magnetic beads (Miltenyi Biotec, Auburn, Calif.) for 30 minutes at 4° C. with occasional gentle mixing. After 30 minutes of incubation on ice, cells were loaded onto a separation column positioned in the strong magnetic field of the MACS. Cells were eluted three times with 5 mL of PIPES buffer containing 1% bovine calf serum. The purity of eosinophils, as counted by Randolph's stain, was regularly >98%. Purified eosinophils were used immediately for experiments.
To monitor eosinophil degranulation, 200 μL of freshly isolated eosinophils were resuspended in HBSS with 25 mM HEPES and 0.01% gelatin at 5×10^5 cells/mL and incubated with the a particular fungal extract. […] To quantitate eosinophil degranulation, the concentration of one of the eosinophil granule proteins in the sample supernatants, EDN, was measured by specific RIA, as described previously (Horie & Kita, 1994, J. Immunol., 152:5457). […] Total cellular EDN was measured in parallel supernatants from cells lysed with Nonidet P-40 detergent (Sigma Chemical Co.). […]

IL-5: cytokine used as reference stimulus of eosinophil degranulation
IL-8 production from eosinophils [1]: very little IL-8 | change in [Ca^2+]i (eosinophils): no elevation of [Ca^2+]i | EDN release (Human eosinophils; 10 ng/mL): 52.1±6.5 ng EDN/10^6 cells | EDN release, eosinophils from allergy patients versus normal individuals (Human eosinophils; 100 μg/mL Alternaria culture extracts or 10 ng/mL IL-5): no difference | EDN release at 4° C. (Human eosinophils; incubation at 4° C. for 3 hours): abrogated EDN release

From patent US20060165732A1, “Fungal antigens and eosinophil activity” (priority 2002, published 2006)
